Experimental data taken from patent publication US4231936A, “Mitomycin C derivatives” (priority 1977, dated 1980).

Legend:
[1] = test system: Bacillus subtilis ATCC 10707; assay: Minimum inhibitory concentration (Table I); type: cell-based
Description: (§1) Comparative data similarly obtained by using mitomycin A, mitomycin C and 7-N-phenyl mitomycin C are also shown in this table

[2] = test system: Klebsiella pneumoniae ATCC 10031; assay: Minimum inhibitory concentration (Table I); type: cell-based
Description: as §1

[3] = test system: Shigella sonnei ATCC 9290; assay: Minimum inhibitory concentration (Table I); type: cell-based
Description: as §1

[4] = test system: Staphylococcus aureus ATCC 6538P; assay: Minimum inhibitory concentration (Table I); type: cell-based
Description: as §1

[5] = background statement; cited from earlier work
[6] = background statement; cited from earlier work; remark: listed apart in the source

## CO[C@@]12[C@H](COC(N)=O)C3=C(C(=O)C(C)=C(N)C3=O)N1C[C@@H]1N[C@@H]12 [II, mitomycin C]
[1]
  minimum inhibitory concentration: < 0.025
[2]
  minimum inhibitory concentration: < 0.025
[3]
  minimum inhibitory concentration: 1.563
[4]
  minimum inhibitory concentration: 0.049
[5]
  antitumor activity: interesting antitumor activity
[6]
  toxicity: relatively high toxicity
